Test results from ChEMBL document CHEMBL3526064, “Sequential metabolism of AMG 487, a novel CXCR3 antagonist, results in formation of quinone reactive metabolites that covalently modify CYP3A4 Cys239 and cause time-dependent inhibition of the enzyme” (Drug Metab Dispos, 2012).
Values belong to the molecule of their own block, whether it stands above or below them.

Legend:
Cytochrome P450 3A4 [1] = target: T1, Cytochrome P450 3A4 (Homo sapiens, UniProt P08684); assay: Drug metabolism assessed as recombinant CYP3A4 (unknown origin)-compound formation treated with (R)-N-(1-(3-(4-hydroxyphenyl)-4-oxo-3,4-dihydropyrido[2,3-d]pyrimidin-2-yl)ethyl)-N-([2-3H]pyridin-3-ylmethyl)-2-(4-(trifluoromethoxy)phenyl)acetamide preincubated for 5 mins followed NADPH addition measured after 45 mins by TIC mass chromatographic analysis; assay type: ADME; details: recombinant enzyme, 0.75 h
T1 sequence (P08684 whole entry): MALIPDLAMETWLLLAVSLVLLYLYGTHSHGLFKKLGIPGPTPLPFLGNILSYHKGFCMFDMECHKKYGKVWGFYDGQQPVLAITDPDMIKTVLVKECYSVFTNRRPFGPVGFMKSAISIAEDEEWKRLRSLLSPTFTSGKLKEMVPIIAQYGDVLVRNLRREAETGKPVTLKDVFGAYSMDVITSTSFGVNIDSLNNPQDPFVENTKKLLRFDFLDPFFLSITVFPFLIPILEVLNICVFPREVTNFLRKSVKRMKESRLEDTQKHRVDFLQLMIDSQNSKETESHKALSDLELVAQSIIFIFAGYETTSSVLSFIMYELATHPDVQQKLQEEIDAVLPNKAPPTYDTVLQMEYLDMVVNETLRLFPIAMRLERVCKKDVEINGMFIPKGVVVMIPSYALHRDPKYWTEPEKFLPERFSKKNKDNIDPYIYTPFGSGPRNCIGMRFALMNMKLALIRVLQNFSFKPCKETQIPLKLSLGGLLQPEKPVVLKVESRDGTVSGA

Cytochrome P450 3A4 [2] = target: T1, Cytochrome P450 3A4; assay: Drug metabolism assessed as recombinant CYP3A4 (unknown origin)-mediated (R)-N-(1-(3-(3,4-dihydroxyphenyl)-4-oxo-3,4-dihydropyrido[2,3-d]pyrimidin-2-yl)ethyl)-N-(pyridin-3-ylmethyl)-2-(4-(trifluoromethoxy)phenyl)acetamide formation preincubated for 5 mins followed NADPH addition measured after 45 mins by TIC mass chromatographic analysis in presence of GSH; assay type: ADME; details: recombinant enzyme, 0.75 h
Cytochrome P450 3A4 [3] = target: T1, Cytochrome P450 3A4; assay: Drug metabolism assessed as recombinant CYP3A4 (unknown origin)-mediated (R)-N-(1-(3-(2,4-dihydroxyphenyl)-4-oxo-3,4-dihydropyrido[2,3-d]pyrimidin-2-yl)ethyl)-N-(pyridin-3-ylmethyl)-2-(4-(trifluoromethoxy)phenyl)acetamide formation preincubated for 5 mins followed NADPH addition measured after 45 mins by TIC mass chromatographic analysis in presence of GSH; assay type: ADME; details: recombinant enzyme, 0.75 h
Cytochrome P450 3A4 [4] = target: T1, Cytochrome P450 3A4; assay: Ratio of Kinact to Ki for CYP3A4 in human liver microsomes using midazolam as substrate; assay type: ADME
Cytochrome P450 3A4 [5] = target: T1, Cytochrome P450 3A4; assay: Time dependent inhibition of CYP3A4 in human liver microsomes using testosterone as substrate preincubated for 30 mins followed by 10-fold dilution and substrate addition by LC-MS/MS analysis in presence of NADPH; assay type: ADME
CYP3A4 [6] = target: T2, CYP3A4 (Homo sapiens, UniProt P08684); assay: (§1) Ratio of IC50 for CYP3A4 in human liver microsomes using midazolam as substrate preincubated for 30 mins followed by 10-fold dilution and substrate addition to IC50 for CYP3A4 in human liver microsomes using midazolam as substrate preincubated for 30 mins followed by 10-fold dilution and substrate addition in presence of NADPH; details: probe midazolam, read-out: Ratio IC50
T2 sequence (P08684 whole entry): as above

Cytochrome P450 3A4 [7] = target: T1, Cytochrome P450 3A4; assay: Time dependent inhibition of CYP3A4 in human liver microsomes assessed as conversion of midazolam to 1'-hydroxymidazolam at 0.1 to 30 uM by LC-MS/MS analysis; assay type: ADME
Cytochrome P450 3A4 [8] = target: T1, Cytochrome P450 3A4; assay: Inactivation of recombinant CYP3A4 (unknown origin) using midazolam as substrate assessed as partition ratio up to 30 uM preincubated for 5 mins followed by dialysis measured after 4 hrs; assay type: ADME; details: recombinant enzyme
Cytochrome P450 3A4 [9] = target: T1, Cytochrome P450 3A4; assay: (§2) Inhibition of CYP3A4 in human liver microsomes using midazolam as substrate assessed as residual enzyme activity after 2 to 10 mins by LC-MS/MS analysis; assay type: ADME
CYP3A4 [10] = target: T2, CYP3A4; assay: as §2; assay type: ADME; details: human, liver microsomes, probe midazolam
Cytochrome P450 3A4 [11] = target: T1, Cytochrome P450 3A4; assay: Inhibition of CYP3A4 in human liver microsomes using testosterone as substrate assessed as unbound inhibitor concentration required for half maximal enzyme inactivation after 2 to 10 mins by LC-MS/MS analysis; assay type: ADME
Cytochrome P450 3A4 [12] = target: T1, Cytochrome P450 3A4; assay: (§3) Inhibition of CYP3A4 in human liver microsomes using testosterone as substrate assessed as residual enzyme activity after 2 to 10 mins by LC-MS/MS analysis; assay type: ADME
CYP3A4 [13] = target: T2, CYP3A4; assay: as §3; assay type: ADME; details: human, liver microsomes, probe testosterone
Cytochrome P450 3A4 [14] = target: T1, Cytochrome P450 3A4; assay: Ratio of Kinact to Ki for CYP3A4 in human liver microsomes using testosterone as substrate; assay type: ADME
Cytochrome P450 3A4 [15] = target: T1, Cytochrome P450 3A4; assay: Time dependent inhibition of CYP3A4 in human liver microsomes using midazolam as substrate preincubated for 30 mins followed by 10-fold dilution and substrate addition by LC-MS/MS analysis; assay type: ADME
Cytochrome P450 3A4 [16] = target: T1, Cytochrome P450 3A4; assay: Time dependent inhibition of CYP3A4 in human liver microsomes using testosterone as substrate preincubated for 30 mins followed by 10-fold dilution and substrate addition by LC-MS/MS analysis; assay type: ADME
Cytochrome P450 3A4 [17] = target: T1, Cytochrome P450 3A4; assay: Time dependent inhibition of CYP3A4 in human liver microsomes assessed as conversion of testosterone to 6beta-hydroxytestosterone 0.1 to 30 uM by LC-MS/MS analysis; assay type: ADME
Cytochrome P450 3A4 [18] = target: T1, Cytochrome P450 3A4; assay: Time dependent inhibition of CYP3A4 in human liver microsomes using midazolam as substrate preincubated for 30 mins followed by 10-fold dilution and substrate addition by LC-MS/MS analysis in presence of NADPH; assay type: ADME
Cytochrome P450 3A4 [19] = target: T1, Cytochrome P450 3A4; assay: Inhibition of CYP3A4 in human liver microsomes using midazolam as substrate assessed as unbound inhibitor concentration required for half maximal enzyme inactivation after 2 to 10 mins by LC-MS/MS analysis; assay type: ADME
Cytochrome P450 3A4 [20] = target: T1, Cytochrome P450 3A4; assay: Inactivation of recombinant CYP3A4 (unknown origin) using testosterone as substrate assessed as partition ratio up to 30 uM preincubated for 5 mins followed by dialysis measured after 4 hrs; assay type: ADME; details: recombinant enzyme
CYP3A4 [21] = target: T2, CYP3A4; assay: as §1, with “testosterone” for “midazolam”; details: probe testosterone, read-out: Ratio IC50
Cytochrome P450 3A4 [22] = target: T1, Cytochrome P450 3A4; assay: Drug metabolism assessed as recombinant CYP3A4 (unknown origin)-mediated compound formation treated with [3H]-(R)-N-(1-(3-(4-hydroxyphenyl)-4-oxo-3,4-dihydropyrido[2,3-d]pyrimidin-2-yl)ethyl)-N-(pyridin-3-ylmethyl)-2-(4-(trifluoromethoxy)phenyl)acetamide preincubated for 5 mins followed NADPH addition measured after 45 mins by TIC mass chromatographic analysis in presence of GSH; assay type: ADME; details: recombinant enzyme, 0.75 h

Structure (SMILES): CC(c1nc2ncccc2c(=O)n1-c1ccc(O)c(O)c1SC[C@H](NC(=O)[C@@H](N)CCC(=O)O)C(=O)NCC(=O)O)N(Cc1cccnc1)C(=O)Cc1ccc(OC(F)(F)F)cc1 (single isomer, unassigned)
Drug metabolism (Cytochrome P450 3A4 [1]): metabolite_detected

Structure (SMILES): CC(c1nc2ncccc2c(=O)n1-c1ccc(O)c(SC[C@H](NC(=O)[C@@H](N)CCC(=O)O)C(=O)NCC(=O)O)c1O)N(Cc1cccnc1)C(=O)Cc1ccc(OC(F)(F)F)cc1 (single isomer, unassigned)
Drug metabolism (Cytochrome P450 3A4 [1]): metabolite_detected

Structure (SMILES): C[C@H](c1nc2ncccc2c(=O)n1-c1cc(O)c(O)c(SC[C@H](NC(=O)[C@@H](N)CCC(=O)O)C(=O)NCC(=O)O)c1)N(Cc1cccnc1)C(=O)Cc1ccc(OC(F)(F)F)cc1
Drug metabolism (Cytochrome P450 3A4 [1]): metabolite_detected

Structure (SMILES): C[C@H](c1nc2ncccc2c(=O)n1-c1c(O)cc(O)cc1SC[C@H](NC(=O)[C@@H](N)CCC(=O)O)C(=O)NCC(=O)O)N(Cc1cccnc1)C(=O)Cc1ccc(OC(F)(F)F)cc1
Drug metabolism (Cytochrome P450 3A4 [1]): metabolite_detected

Structure (SMILES): C[C@H](c1nc2ncccc2c(=O)n1-c1cc(O)c(O)cc1SC[C@H](NC(=O)[C@@H](N)CCC(=O)O)C(=O)NCC(=O)O)N(Cc1cccnc1)C(=O)Cc1ccc(OC(F)(F)F)cc1
Drug metabolism (Cytochrome P450 3A4 [1]): metabolite_detected

Structure (SMILES): C[C@H](c1nc2ncccc2c(=O)n1-c1cc(SC[C@H](NC(=O)[C@@H](N)CCC(=O)O)C(=O)NCC(=O)O)c(O)cc1O)N(Cc1cccnc1)C(=O)Cc1ccc(OC(F)(F)F)cc1
Drug metabolism (Cytochrome P450 3A4 [1]): metabolite_detected

Structure (SMILES): C[C@H](c1nc2ncccc2c(=O)n1-c1ccc(O)cc1O)N(Cc1cccnc1)C(=O)Cc1ccc(OC(F)(F)F)cc1
Drug metabolism (Cytochrome P450 3A4 [1]): metabolite_detected

Continued, in another order:

Drug metabolism (Cytochrome P450 3A4 [2]): metabolite_detected
Drug metabolism (Cytochrome P450 3A4 [3]): metabolite_detected
Structure (SMILES): [3H]c1ncccc1CN(C(=O)Cc1ccc(OC(F)(F)F)cc1)[C@H](C)c1nc2ncccc2c(=O)n1-c1ccc(O)cc1

Ratio (Cytochrome P450 3A4 [4]): 0.12 mL/min/nmol
IC50 (Cytochrome P450 3A4 [5]): 68 nM
inhibition (INH) (Cytochrome P450 3A4 [7]): Active
Ratio (Cytochrome P450 3A4 [8]): 36
Ki (Cytochrome P450 3A4 [9]): 1900 nM
kinact (CYP3A4 [10]): 0.00147 s⁻¹
Ki (Cytochrome P450 3A4 [11]): 740 nM
Ki (Cytochrome P450 3A4 [12]): 1900 nM
kinact (CYP3A4 [13]): 0.00165 s⁻¹
Ratio (Cytochrome P450 3A4 [14]): 0.13 mL/min/nmol
IC50 (Cytochrome P450 3A4 [15]): 650 nM
IC50 (Cytochrome P450 3A4 [16]): 2100 nM
inhibition (INH) (Cytochrome P450 3A4 [17]): Active
IC50 (Cytochrome P450 3A4 [18]): 27 nM
Ki (Cytochrome P450 3A4 [19]): 730 nM
Ratio (Cytochrome P450 3A4 [20]): 36
Structure (SMILES): C[C@H](c1nc2ncccc2c(=O)n1-c1ccc(O)cc1)N(Cc1cccnc1)C(=O)Cc1ccc(OC(F)(F)F)cc1
IC50 shift at 30 min (CYP3A4 [6]): 24
IC50 shift at 30 min (CYP3A4 [21]): 31

Drug metabolism (Cytochrome P450 3A4 [1]): metabolite_detected
Structure (SMILES): C[C@H](c1nc2ncccc2c(=O)n1-c1ccc(O)c(O)c1)N(Cc1cccnc1)C(=O)Cc1ccc(OC(F)(F)F)cc1

Drug metabolism (Cytochrome P450 3A4 [22]): metabolite_detected
Structure (SMILES): C[C@H](c1nc2ncccc2c(=O)n1-c1ccc(O)cc1)N(Cc1ccc[n+]([O-])c1)C(=O)Cc1ccc(OC(F)(F)F)cc1
